Data: patent publication US6657105B2 (Riken, priority 2000, dated 2003)

System: Or-Prnp transgenic mice
Conditions: mouse, in vivo, 4 mg/kg

CN1[C@@H]2CC[C@H]1C[C@@H](OC(=O)C(CO)c1ccccc1)C2 (stereo partly shown) [atropine]
abnormal waves in electrocardiogram after administration of heart stimulant: only Or-Prnp transgenic mice showed the abnormal waves in electrocardiogram
